Reference: patent US10925971B2, “Methods of treating PRLR positive breast cancer” (Regeneron Pharmaceuticals, Inc., priority 2016, dated 2021)
Like-named read-outs stand apart in the source and are kept apart here. Square brackets hold non-standard residues; d marks the D form. Peptide text beside a SMILES is read from it. * marks the point of attachment. Dolaproine = CO[C@@H]([C@@H]1CCCN1)[C@@H](C)C(=O)O; Dil = CC[C@H](C)[C@H](NC)[C@@H](CC(=O)O)OC; X1 = C[C@@H](N*)[C@@H](O)c1ccccc1; NMeV = CN[C@H](C(=O)O)C(C)C

Legend:
[1] = tested on: HEK293 (293) cells; assay: In vitro cell viability (cell kill) assay, CCK8; type: cell-based, human
Description: (§1) PRLR-overexpressing cells, including HEK293, PC3, MCF7 and NCI-N87, were generated to assess the ability of anti-PRLR conjugated antibodies to reduce cell viability. For comparative purposes, PC3 and T47D cells with overexpressed ErbB2 were also generated, as well as an MCF7 cell line over-expressing both hPRLR and hErbB2. Briefly, Lipofectamine® 2000-mediated transfection methodology was utilized to generate HEK293 cells expressing human PRLR (HEK293/hPRLR) or human ErbB2 (HEK293/hErbB2). Lipofectamine LTX with Plus Reagent was used to generate PC3 cells expressing human PRLR (PC3/hPRLR) or human ErbB2 (PC3/hErbB2). Lentiviral-mediated transduction was utilized to generate MCF7 cells expressing human PRLR (MCF7/hPRLR), NCI-N87 cells expressing human PRLR (NCI-N87/hPRLR), T47D cells over-expressing human ErbB2 (T47D/hErbB2), and MCF7 cells expressing both human PRLR and human ErbB2 (MCF7/hPRLR/hErbB2). All lines were selected for at least two weeks in complete growth media plus appropriate selection reagents. Stably expressing populations were enriched for PRLR expression via FACS using the anti PRLR antibody Control I.
(§2) Next, the ability of anti-PRLR-DM1 antibody-drug conjugates (i.e., anti-PRLR antibodies conjugated to DM1 via a non-cleavable linker [SMCC]) to reduce cell viability was determined using in vitro cell based assays. Cells were seeded in PDL-coated 96 well plates at 1500 to 10000 cells per well in complete growth media and allowed to grow overnight. For cell viability curves, ADCs or free DM1 (as the methyl disulfide derivative DM1-SMe) were added to the cells at final concentrations ranging from 500 nM to 5 pM and incubated for 3 days. The 293, PC3 and T47D cells were incubated with CCK8 (Dojindo, Rockville, Md.) for the final 1-3 hours and the absorbance at 450 nm (OD450) was determined on a Flexstation3 (Molecular Devices, Sunnyvale, Calif.). MCF7 cells were treated with Hoechst 33342 nuclear stain while being fixed with 4% formaldehyde. Images were acquired on the ImageXpress micro XL (Molecular Devices, Sunnyvale, Calif.) and nuclear counts were determined via Columbus image analysis software (Perkin Elmer, Shelton, Conn.). Background OD450 values (PC3, 293, and T47D) or nuclear counts (MCF7) from digitonin (40 nM) treated cells was subtracted from all wells and viability was expressed as a percentage of the untreated controls. IC50 values were determined from a four-parameter logistic equation over a 10-point response curve (GraphPad Prism).

[2] = tested on: PC3 cells; assay: In vitro cell viability (cell kill) assay, CCK8; type: cell-based, human
Description: as §1, §2

[3] = tested on: PC3/hPRLR cells; assay: In vitro cell viability (cell kill) assay, CCK8; type: cell-based, human; conditions: Table 18
Description: as §1, §2

[4] = tested on: MCF7 (MCF7/ATCC) cells; assay: In vitro cell viability (cell kill) assay, nuclear counts; type: cell-based, human; conditions: MCF7/ATCC
Description: as §1, §2

[5] = tested on: MCF7/hPRLR (MCF7/PRLR) cells; assay: as above; type: cell-based, human
Description: as §1, §2

[6] = tested on: T47D cells; assay: In vitro cell viability (cell kill) assay, CCK8; type: cell-based, human; conditions: T47D; for IC50: read-out: IC50
Method: as §2

[7] = tested on: MCF7/PRLR tumors; assay: MCF7/PRLR breast cancer xenograft, tumor size and tumor growth inhibition; type: in vivo, NCr nude mice; conditions: MCF7/PRLR tumors TRIAL #2, NCr Nude mice, Day 63
Description: (§3) Briefly, 20×10^6 MCF7/PRLR cells (ATCC HTB-22 transfected with full length hPRLR as previously described) were implanted subcutaneously into the left mammary fat pad of female NCr nude mice. In other studies, 10×10^6 PC3/PRLR (ATCC CRL-1435 transfected with full length hPRLR as previously described) were implanted subcutaneously into the left flank of male SCID mice. Additionally, 10×10^6 parental T47D (ATCC HTB-133) or 7.5×10^10 T47D #11 cells (ATCC HTB-133 serially passaged in vivo as described below) were subcutaneously implanted into the left flank of female CB17 SCID mice. All mice were obtained from Taconic (Hudson, N.Y.). Each bolus of cells was supplemented with a 90-day estrogen release pellet (1.7 mg/pellet; Innovative Research America, Sarasota Fla.). […] Control reagents included PBS vehicle, free methyl-disulfide DM1 (DM1-SMe) and isotype Control 1-DM1.
(§4) In multi-dose studies, mice were dosed once a week for a total of three weeks with tumor volumes and body weights being monitored twice weekly throughout the study. Test ADCs were dosed at 5 and/or 15 mg/kg in the multi-dose studies. In single-dose studies, mice received a single dose of test ADC, and tumor volumes and body weights were monitored twice weekly throughout the study. Test ADCs were dosed at 1, 2.5, 5, and 15 mg/kg in the single-dose studies. Average tumor size as well as tumor growth inhibition relative to the vehicle treated group were calculated for each group. Tumors were measured with calipers twice a week until the average size of the vehicle group reached 1000 mm^3. Tumor size was calculated using the formula (length×width^2)/2. Tumor growth inhibition was calculated according to the following formula: (1−((Tfinal−Tinitial)/(Cfinal−Cinitial)))*100, where T (treated group) and C (control group) represent the mean tumor mass on the day the vehicle group reached 1000 mm^3. […] Results are summarized in Tables 21-25 (multi-dose) and Table 26 (single dose). (NT=not tested in the particular experiment shown).

[8] = tested on: PC3/PRLR tumors; assay: PC3/PRLR xenograft, tumor size and tumor growth inhibition; type: in vivo, SCID mice; conditions: PC3/PRLR tumors TRIAL #2, SCID mice, Day 55
Description: as §3, §4

[9] = tested on: T47D#11 tumors; type: in vivo, CB17 SCID mice; conditions: for Final Tumor size mm^3 (mean ± SEM) / Average Tumor Growth Inhibition (%): T47D#11 tumors, SCID mice, Day 66; for T47D #11 tumor growth: repeat dosing 5 and 15 mg/kg
Description: as §3, §4

[10] = tested on: PRLR expressing cells; assay: In vitro cell viability (cell kill) assay, several cell backgrounds; type: cell-based, human; conditions: PC3/hPRLR and MCF7/hPRLR cell lines
Description: as §1, §2

Molecule: CC[C@H](C)[C@@H]([C@@H](CC(=O)N1CCC[C@H]1[C@H](OC)[C@@H](C)C(=O)N[C@H](C)[C@@H](O)c1ccccc1)OC)N(C)C(=O)[C@@H](NC(=O)[C@@H](NC)C(C)C)C(C)C [Free MMAE] (H-[NMeV]V[Dil][Dolaproine]-X1)
- % Kill ([1]; 293, Table 19): 100%
- IC50 ([1]; 293, Table 19): 0.9 nM
- % Kill ([2]; Table 18): 90%
- IC50 ([2]; Table 18): 1.4 nM
- % Kill [3]: 77%
- IC50 [3]: 1 nM
- % Kill ([4]; Table 18): 83%
- IC50 ([4]; Table 18): 2.4 nM
- % Kill ([4]; Table 20): 80%
- IC50 ([4]; Table 20): 2.4 nM
- % Kill ([5]; Table 18): 95%
- IC50 ([5]; Table 18): 1.5 nM
- % Kill ([5]; Table 20): 95%
- IC50 ([5]; Table 20): 1.5 nM
- % Kill ([6]; Table 19): 100%
- IC50 ([6]; Table 19): 1 nM

Molecule: COc1cc2cc(c1Cl)N(C)C(=O)C[C@H](OC(=O)[C@H](C)N(C)C(=O)CCC(C)(C)S)[C@]1(C)O[C@H]1[C@H](C)[C@@H]1C[C@@](O)(NC(=O)O1)[C@H](OC)/C=C/C=C(\C)C2 [Free DM4]
- % Kill ([1]; 293, Table 19): 100%
- IC50 ([1]; 293, Table 19): 0.6 nM
- % Kill ([4]; Table 20): 90%
- IC50 ([4]; Table 20): 1.3 nM
- % Kill ([5]; Table 20): 90%
- IC50 ([5]; Table 20): 2 nM
- % Kill ([6]; Table 19): 100%
- IC50 ([6]; Table 19): 0.5 nM

Molecule: COc1cc2cc(c1Cl)N(C)C(=O)C[C@H](OC(=O)[C@H](C)N(C)C(=O)CCSSC)[C@]1(C)O[C@H]1[C@H](C)[C@@H]1C[C@@](O)(NC(=O)O1)[C@H](OC)/C=C/C=C(\C)C2 [Me-SS-May Free DM1]
- % Kill ([1]; HEK293, Table 13, without PRL): 94%
- IC50 ([1]; HEK293, Table 13, without PRL): 0.6 nM
- % Kill ([6]; Table 13, without PRL): 100%
- IC50 ([6]; Table 13, without PRL): 0.3 nM

B1: H1H6782P-DM1: anti-PRLR antibody H1H6782P conjugated to DM1 through an SMCC linker (conjugate)
VH: EVQLVESGGGLVQPGRSLRLSCAASGFTFDDYAMHWVRQAPGKGLEWVSGIIWNSGHIGYGDSVKGRFTISRDNAKKSLYLQMNSLRAEDTALYYCARDSGRYQSYFDYWGQGTLVTVSS
VL: DIQMTQSPSTLSASVGDRVTITCRASHIISSWLAWYQQKPGKAPKVLIFKASSLESGVPSRFSGSGSGTEFTLTISSLQPDDFATYYCQQYNTYSRTFGQGTKVEIK
- % Kill ([1]; 293, Table 11, 3 days): 86%
- % Kill ([2]; Table 11, 3 days): 67%
- Average Tumor Growth Inhibition (%) ([7]; multi-dose 5 mg/kg): 123%
- Average Tumor Growth Inhibition (%) ([7]; multi-dose 15 mg/kg): 137%
- Average Tumor Growth Inhibition (%) ([8]; multi-dose 5 mg/kg): 69%
- Final Tumor size mm^3 (mean ± SEM) ([8]; multi-dose 5 mg/kg): 490 ± 63 mm^3
- Final Tumor size mm^3 (mean ± SEM) ([8]; multi-dose 15 mg/kg): 321 ± 33 mm^3
- Final Tumor size mm^3 (mean ± SEM) ([9]; multi-dose 5 mg/kg): 293 ± 20 mm^3
- Average Tumor Growth Inhibition (%) ([9]; multi-dose 15 mg/kg): 106%
- Final Tumor size mm^3 (mean ± SEM) ([9]; multi-dose 15 mg/kg): 124 ± 36 mm^3
- T47D #11 tumor growth [9]: potently inhibited tumor growth

B2: H1H6765P-DM1: anti-PRLR antibody H1H6765P conjugated to DM1 through an SMCC linker (conjugate)
VH: EVQLVESGGGVVRPGGSLRLSCVGSGFSFDDHGMNWVRQGPGKGLEWVSGFNWNGGSTNYAESVKGRFTISRDNARNSLFLQMNSLRAEDTALYYCVRGRSGWFNDAFDVWGPGTMVTVSS
VL: EIVLTQSPGTLSLSPGERATLSCRASQTINSNYLAWYRQKPGQTPRLLIYGTSSRATGIPDRFSGSGSGTDFSLTISRLEPEDFAVFYCQQYAGLPTFGPGTKVDIK
- cell killing, non-cleavable DM1 ADCs versus cleavable MMAE ADCs [10]: nearly equivalent cell killing
- IC50 ([2]; Table 11, 3 days): 200 nM
- Average Tumor Growth Inhibition (%) ([7]; multi-dose 5 mg/kg): 122%
- Average Tumor Growth Inhibition (%) ([7]; multi-dose 15 mg/kg): 136%
- Final Tumor size mm^3 (mean ± SEM) ([7]; multi-dose 15 mg/kg): 0 ± 0 mm^3
- Final Tumor size mm^3 (mean ± SEM) ([8]; multi-dose 5 mg/kg): 489 ± 70 mm^3
- Average Tumor Growth Inhibition (%) ([8]; multi-dose 15 mg/kg): 98%
- Final Tumor size mm^3 (mean ± SEM) ([8]; multi-dose 15 mg/kg): 181 ± 42 mm^3
- Final Tumor size mm^3 (mean ± SEM) ([9]; multi-dose 5 mg/kg): 183 ± 28 mm^3
- Average Tumor Growth Inhibition (%) ([9]; multi-dose 15 mg/kg): 111%
- Final Tumor size mm^3 (mean ± SEM) ([9]; multi-dose 15 mg/kg): 69 ± 12 mm^3
- T47D #11 tumor growth [9]: potently inhibited tumor growth

B3: H1H6765-mc-VC-PAB-MMAE (conjugate)
VH: B2 VH
VL: B2 VL
- cell killing, non-cleavable DM1 ADCs versus cleavable MMAE ADCs [10]: nearly equivalent cell killing

B4: H1H6958N2-mc-VC-PAB-MMAE (conjugate)
VH: QVQLVESGGGVVQPGRSLRLSCGASGFTFRNYGMQWVRQGPGKGLEWVTLISFDGNDKYYADSVKGRFTISRDNSKNTLFLQMNSLRTEDTAVYYCARGGDFDYWGQGTLVTVSS
VL: DIQMTQSPSSLSASVGDRVTITCRASQDIRKDLGWYQQKPGKAPKRLIYAASSLHSGVPSRFSGSGSGTEFTLTISSLQPEDFATYYCLQHNSYPMYTFGQGTKLEIK
- cell killing, non-cleavable DM1 ADCs versus cleavable MMAE ADCs [10]: nearly equivalent cell killing
- % Kill ([2]; Table 18): 39%

B5: H1H6953-mc-vc-PAB-MMAE (conjugate)
VH: EVQLLESGGGLVQPGGTLRLSCAASGFTFSAYAMSWVRQAPGKGLEWVSSINVRAGDTYYADSVKGRFTISRDNSKNTLFLLMNSLRAEDTAAYYCAKARYSSNWGFDFWGQGTLVTVSS
VL: DIVMTQSPDSLTVSLGARTTINCQSSQTILHSSNNHNYLAWYQQKPGLPPKLLIYWSSTRESGVPDRFSGSGSGTDFTLTISSLQAEDVAIYYCQQYSNTPYTFGQGTKLEIN
- cell killing, non-cleavable DM1 ADCs versus cleavable MMAE ADCs [10]: nearly equivalent cell killing
